From ChEMBL document CHEMBL1147725, “Identification and biological characterization of 6-aryl-7-isopropylquinazolinones as novel TRPV1 antagonists that are effective in models of chronic pain” (J Med Chem, 2006)
pIC50: −log10 of the molar value. In brackets after ≈: the same amount, converted by molar mass.

Experiments:
[1] = biological target: T1, Transient receptor potential cation channel subfamily V member 1 (Homo sapiens, UniProt Q8NER1); assay: Inhibition of calcium influx evoked by capsaicin in human TRPV1 expressing cells by fluorescence assay; assay type: functional
[2] = biological target: T1, Transient receptor potential cation channel subfamily V member 1; assay: Inhibition of low pH activation of human TRPV1; assay type: functional
[3] = Aqueous solubility at pH 6.8 and 25 degC; assay type: physicochemical; settings: aqueous medium
[4] = Half life in rat at 3 mg/kg, po; assay type: ADME, organism-based; design: dose 3 mg/kg, route oral; settings: Wistar Han, in vivo

T1 sequence (Q8NER1 whole entry): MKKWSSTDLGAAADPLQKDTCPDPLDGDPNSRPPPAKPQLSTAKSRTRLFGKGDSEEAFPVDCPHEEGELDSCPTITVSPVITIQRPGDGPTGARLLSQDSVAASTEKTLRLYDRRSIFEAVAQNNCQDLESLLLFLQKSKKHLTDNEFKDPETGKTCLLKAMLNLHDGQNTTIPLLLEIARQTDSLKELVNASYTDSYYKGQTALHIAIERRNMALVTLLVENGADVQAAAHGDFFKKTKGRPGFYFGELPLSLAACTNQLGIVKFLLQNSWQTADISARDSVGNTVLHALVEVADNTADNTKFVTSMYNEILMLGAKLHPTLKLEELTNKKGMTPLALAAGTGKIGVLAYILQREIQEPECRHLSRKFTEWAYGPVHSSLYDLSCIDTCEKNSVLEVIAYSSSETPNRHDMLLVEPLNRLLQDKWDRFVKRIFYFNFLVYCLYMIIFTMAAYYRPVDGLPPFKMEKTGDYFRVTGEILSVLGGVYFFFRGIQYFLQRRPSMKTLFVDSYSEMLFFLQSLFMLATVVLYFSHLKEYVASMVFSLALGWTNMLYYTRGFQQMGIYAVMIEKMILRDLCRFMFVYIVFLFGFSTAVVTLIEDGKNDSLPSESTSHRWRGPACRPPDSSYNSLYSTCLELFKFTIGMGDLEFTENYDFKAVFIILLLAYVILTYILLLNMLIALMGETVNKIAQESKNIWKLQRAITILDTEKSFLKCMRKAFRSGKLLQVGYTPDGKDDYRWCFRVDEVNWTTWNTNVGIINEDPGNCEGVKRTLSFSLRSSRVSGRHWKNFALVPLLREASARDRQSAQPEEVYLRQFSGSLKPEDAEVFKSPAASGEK

Row | pIC50 [1] | pIC50 [2] | solubility [3] [µg/mL] | half-life [4] [h] | SMILES
1 | 7.64 |  |  |  | Cc1nc2cc(C(C)C)c(-c3ccc(Cl)c(F)c3)cc2c(=O)[nH]1
2 |  | 7.74 | 0.15 (≈ 0.434 µM) | 7.5 | CC(C)(C)c1nc2[nH]c(=S)[nH]c(=O)c2cc1-c1ccc(Cl)cc1
3 | 7.89 |  | 4 (≈ 12.8 µM) |  | Cc1nc2cc(C(C)C)c(-c3ccc(Cl)cc3)cc2c(=O)[nH]1
4 | 6.25 |  |  |  | Cc1nc(O)c2cc(-c3ccc(Cl)c(OCCO)c3)c(C(C)C)cc2n1
5 | < 6.00 |  |  |  | CCc1nc2cc(C(C)C)c(-c3ccc(Cl)cc3)cc2c(=O)[nH]1
6 | < 6.00 |  |  |  | Cc1nc(O)c2cc(-c3ccc(Cl)c(OCC(=O)O)c3)c(C(C)C)cc2n1
